Test results published in patent publication US4808409A, “Low cariogenic sweetening agents” (Board of Trustees, University of Illinois, priority 1984, dated 1989).

Experiments:
[1] = in vivo; details: mouse, in vivo, po
Description: (§1) Compounds were suspended in a minimum volume of 1% sodium carboxymethylcellulose, and were administered by oral intubation at the doses indicated in Table II.
(§2) ^a Male SwissWebster mice (9 or 10 animals per dose).
(§3) ^d Mortality = number of mice dying within 14 days/number of starting
(§4) ^e Mortality = number of mice dying within 24 hours/number of startin

[2] = test system: male Swiss-Webster mice; assay: in vivo
Description: as §1, §2, §3, §4

[3] = Body weight variation in mice following oral administration; details: for Day 14 total body weight vs control values: Day 14, in words
Description: as §1

[4] = test system: S. mutans; assay: Cariogenicity: acid production by S. mutans from sweetener; assay type: cell-based; details: 500 micrograms per unit volume sucrose
Description: In a first test, the ability of microbes to utilize this sweetener source as a nutrient and convert it to acidic by-products was determined.

[5] = test system: human taste panel; assay: Human taste panel magnitude estimation of sweetness intensity and pleasantness
Description: Solutions were presented to the subjects in a randomized fashion and were sampled in duplicate. After tasting, each solution was expectorated, and the mouth was washed with distilled water.

CC1=CC(=O)CCC1 [3-Methyl-2-cyclohexen-1-one, 3-methyl-2-cyclohexen-1-one]
LD50 at 24 h [1]: < 2000 mg/kg
Estimated LD50 ([2]; mouse, in vivo, po): 1600 ± 130 mg/kg
Mortality at 1.1 g/kg ([2]; oral, 1.1 g/kg): 0/10
Mortality at 1.3 g/kg ([2]; oral, 1.3 g/kg): 2/10
Mortality at 1.4 g/kg ([2]; oral, 1.4 g/kg): 4/10
Mortality at 1.6 g/kg ([2]; oral, 1.6 g/kg): 5/10
Mortality at 2.0 g/kg (24 hours) ([2]; oral, 2.0 g/kg, 24 hours): 8/10
Mortality at 2.4 g/kg ([2]; oral, 2.4 g/kg): 10/10
Acute toxicity for mice ([2]; oral, in words): essentially non-toxic

CC(=O)CCC=C(C)C [6-Methyl-5-hepten-2-one, 6-methyl-5-hepten-2-one]
Body weight, Day 1 (1.0 g/kg) ([3]; 1.0 g/kg oral, Day 1, hernandulcin = synthetic): 28.2 ± 0.8 g
Body weight, Day 3 (1.0 g/kg) ([3]; 1.0 g/kg oral, Day 3, hernandulcin = synthetic): 26.3 ± 0.8 g
Body weight, Day 7 (1.0 g/kg) ([3]; 1.0 g/kg oral, Day 7, hernandulcin = synthetic): 24.7 ± 0.9 g
Body weight, Day 14 (1.0 g/kg) ([3]; 1.0 g/kg oral, Day 14, hernandulcin = synthetic): 28.0 ± 0.8 g
Body weight, pre-drug (1.0 g/kg group) ([3]; 1.0 g/kg oral, pre-drug, hernandulcin = synthetic): 27.7 ± 0.8 g
Body weight, Day 1 (2.0 g/kg) ([3]; 2.0 g/kg oral, Day 1, hernandulcin = synthetic): 28.6 ± 0.8 g
Body weight, Day 3 (2.0 g/kg) ([3]; 2.0 g/kg oral, Day 3, hernandulcin = synthetic): 26.8 ± 0.9 g
Body weight, Day 7 (2.0 g/kg) ([3]; 2.0 g/kg oral, Day 7, hernandulcin = synthetic): 25.0 ± 0.9 g
Body weight, Day 14 (2.0 g/kg) ([3]; 2.0 g/kg oral, Day 14, hernandulcin = synthetic): 24.5 ± 0.8 g
Body weight, pre-drug (2.0 g/kg group) ([3]; 2.0 g/kg oral, pre-drug, hernandulcin = synthetic): 28.8 ± 0.8 g
Day 14 total body weight vs control values [3]: Significant difference from controls
Day 14 total body weight vs control values ([3]; listed as 6-methyl-5-hepten-2-one): significantly different from control values
Mortality at 1.0 g/kg ([2]; oral, 1.0 g/kg, 14 days, hernandulcin = synthetic): 0/9
Mortality at 2.0 g/kg (14 days) ([2]; oral, 2.0 g/kg, 14 days, hernandulcin = synthetic): 0/9
Acute toxicity for mice ([2]; oral, in words): essentially non-toxic
Estimated LD50 ([2]; oral, male mice, hernandulcin = synthetic (two enantiomers)): > 2000 mg/kg
Mortality at doses up to 2 g/kg ([2]; oral, up to 2 g/kg body weight, in words): no mortality

OC[C@H]1O[C@@](CO)(O[C@H]2O[C@H](CO)[C@@H](O)[C@H](O)[C@H]2O)[C@@H](O)[C@@H]1O [Sucrose, reference compound]
Rate of acid production at 500 micrograms per unit volume [4]: 2.8×10^-4 mEq acid/min.
Sweetness intensity, sucrose 0.031 M ([5]; 0.031 M, scale 0-100, mean (standard error)): 6.6 (2.44)
Sweetness pleasantness, sucrose 0.031 M ([5]; 0.031 M, scale -100 to +100, mean (standard error)): -3.2 (6.44)
Sweetness intensity, sucrose 0.062 M ([5]; 0.062 M, scale 0-100, mean (standard error)): 7.8 (1.96)
Sweetness pleasantness, sucrose 0.062 M ([5]; 0.062 M, scale -100 to +100, mean (standard error)): -1.6 (7.61)
Sweetness intensity, sucrose 0.125 M ([5]; 0.125 M, scale 0-100, mean (standard error)): 21.9 (3.30)
Sweetness pleasantness, sucrose 0.125 M ([5]; 0.125 M, scale -100 to +100, mean (standard error)): 19.2 (5.23)
Sweetness intensity, sucrose 0.25 M ([5]; 0.25 M, scale 0-100, mean (standard error)): 38.1 (4.43)
Sweetness pleasantness, sucrose 0.25 M ([5]; 0.25 M, scale -100 to +100, mean (standard error)): 31.8 (6.34)
Sweetness intensity, sucrose 0.50 M ([5]; 0.50 M, scale 0-100, mean (standard error)): 44.4 (4.63)
Sweetness pleasantness, sucrose 0.50 M ([5]; 0.50 M, scale -100 to +100, mean (standard error)): 37.8 (5.96)
Sweetness intensity, sucrose 1.0 M ([5]; 1.0 M, scale 0-100, mean (standard error)): 75.5 (4.73)
Sweetness pleasantness, sucrose 1.0 M ([5]; 1.0 M, scale -100 to +100, mean (standard error)): 2.5 (9.57)
Sweetness intensity, sucrose 2.0 M ([5]; 2.0 M, scale 0-100, mean (standard error)): 89.1 (2.93)
Sweetness pleasantness, sucrose 2.0 M ([5]; 2.0 M, scale -100 to +100, mean (standard error)): -20.2 (12.69)
Sucrose concentration providing a standard panel response to sucrose intensity ([5]; determined graphically): 0.27 M
Sweetness intensity at matched concentration ([5]; scale 0-100, sucrose 0.27 M, natural hernandulcin 2.5 × 10^-4 M): 40
